What was measured:
[1] = Metabolic stability and formation of parent compound in rat liver microsomes; format: in vitro ADME; settings: NADPH, 37 °C, up to 3 h
Procedure: (§1) Analysis was performed by using a Waters Alliance HPLC system (2695 pump, and 2489 PDA detector) with the following chromatographic parameters: wavelength, 278 nm; injection volume, 20 μL; run time, 20 min. The chromatographic separation was performed on an Phecda C18 (4.6 mm × 250 mm, 5 μm) column with a gradient elution of methanol and deionized water. Flow rate was 1.0 mL/min at 30 °C.
Rat liver microsomes were prepared in house by a previously published method and used immediately in the experiments. Protein concentrations were determined by a Lowry protein assay.
Rat liver microsomes (2.0 mg/mL protein concentration), NADPH (1.0 mM solution, Sigma, Shanghai, China), Tris-HCl buffer (50 mM, pH 7.4, Sigma, Shanghai, China), test compound in aqueous solution (30 mM, 20 μL).
Tris-HCl buffer (780 μL), 1.0 mM NADPH solution (100 μL), and 100 μL of rat liver microsomes were mixed and vortexed at 37 °C for 5 min. To this mixture, 30 mM drug in aqueous solution (20 μL) was injected and vortexed well. Sample (100 μL) was immediately taken out (0 min) and transferred to the centrifuge tube containing ice cold dissolvent (ethanol-ethyl acetate = 1:4 v/v, 1 mL). […] The percentage of prodrug remaining was calculated according to the following equation: % remaining = peak area at respective time (min)/peak area at 0 min × 100% (2)

[2] = In vitro physiological stability and formation of parent compound in rat plasma; format: in vitro ADME; settings: 37 °C, up to 3 h
Procedure: as §1
Rat plasma was harvested from in-house rats. Fresh blood was collected from the male rat using a retro-orbital bleeding method in a tube containing heparin (100 IU/mL blood). After the collection of blood, plasma was separated from the blood by centrifugation at 5,000 rpm for 10 min. The supernatant plasma was separated and utilized for the further experiment.
The test compound in aqueous solution 30 mM (20 μL) was dissolved in rat plasma (980 μL). Immediately after addition (0 min), aliquots (100 μL) were removed and added to ice cold dissolvent (ethanol-ethyl acetate = 1:4 v/v, 1 mL) and mixed well by vortexing for 2 min. The mixture was centrifuged at 12,000 rpm for 10 min, and the supernatant was diluted with methanol and analyzed by HPLC. After 0 min, the remaining sample was incubated at 37 °C for 1, 2, and 3 h. […]

metabolic stability [1]: fairly stable
metabolic stability [2]: fairly stable
SMILES: Cc1nc(CO)c(C)nc1CO [1a, Liguzinediol]

From PMC6270099, “Synthesis, Biological Evaluation, and Pharmacokinetic Study of Novel Liguzinediol Prodrugs” (Molecules, 2013)
